Experimental findings from publication PMC7168933, “Design, Synthesis and Biochemical Evaluation of Novel Ethanoanthracenes and Related Compounds to Target Burkitt’s Lymphoma” (Pharmaceuticals, 2020) are described below.

Structures are written as SMILES.

For series [1], the system named is MUTU-1 Burkitt lymphoma cell line (EBV+). The following applies: 24 h.
Series [2] shares this test system. As to the kind of experiment: cells. The following applies: Mutu-1, 24 h; for viability at 1 µM: read-out: MUTU-1 Cell Viability % 1 μM, 1 μM, 24 h; for viability at 10 µM: read-out: MUTU-1 Cell Viability % 10 μM, 10 μM, 24 h.
Series [3] deals with DG-75 Burkitt lymphoma cell line (EBV−, chemoresistant). Nature of the series: cells. The following applies: Homo sapiens, DG-75, 48 h; for viability at 1 µM: read-out: DG-75 Cell Viability % 1 μM, 1 μM, 48 h; for viability at 10 µM: read-out: DG-75 Cell Viability % 10 μM, 10 μM, 48 h.

One may read the melting point as the temperature, or range, at which the solid turns liquid. In general, viability refers to a read-out of living cells in per cent, often relative to untreated cells. In turn, `O=C1OC(=O)C2C1C1c3ccccc3C2(/C=C/[N+](=O)[O-])c2ccccc21` (stereo not drawn) [Compound 13a, (E)-9-(2-Nitrovinyl)-9,10-dihydro-9,10-[3,4]furanoanthracene-12,14-dione] registered a melting point of 244 to 245 °C. Also, in series [1], the “cell viability in MUTU-I cell line (1 and 10 μM together or concentration not stated)” value is 7–24%. For the same molecule, in series [2], the viability at 1 µM is 24.4% and the viability at 10 µM was 12.5%. Further, in series [3], the viability at 1 µM turned out to be 78.5% and the viability at 10 µM came to 62.2%.

The IC50 is the point on the concentration scale where inhibition reaches its midpoint. For `CN1C(=O)C2C3c4ccccc4C(/C=C/[N+](=O)[O-])(c4ccccc43)C2C1=O` (stereo not drawn) [Compound 13m, (E)-13-Methyl-9-(2-nitrovinyl)-9,10-dihydro-9,10-[3,4]epipyrroloanthracene-12,14-dione], the melting point lay in the range of 267 to 268 °C. Besides, the “MUTU-1 Cell Viability % 1 μM” value in series [1] is on record as 0%. Moreover, in series [2] (read-out: IC50 MUTU-I 24 h), the IC50 was found to be 320 nM. The viability at 10 µM in series [2] was 7.4%. Besides, in series [3], the viability at 1 µM turned out to be 38.1% and the viability at 10 µM was determined as 0.93%.

As to `O=C1C2C3c4ccccc4C(/C=C/[N+](=O)[O-])(c4ccccc43)C2C(=O)N1CO` (stereo not drawn) [Compound 13n, (E)-13-(Hydroxymethyl)-9-(2-nitrovinyl)-9,10-dihydro-9,10-[3,4]epipyrroloanthracene-12,14-dione], the melting point is 230 to 232 °C. Further, the “MUTU-1 Cell Viability % 1 μM” value in series [1] was determined as 0%. For the same molecule, the viability at 10 µM in series [2] turned out to be 1.8%. Further, in series [3], the viability at 1 µM is 74.6% and the viability at 10 µM came out at 20.4%.

As to `O=[N+]([O-])/C=C/C12c3ccccc3C(c3ccccc31)c1ccccc12` [Compound 20a, (E)-9-(2-nitrovinyl)-9,10-dihydro-9,10-[1,2]benzenoanthracene], the “cell viability in MUTU-I cell line (1 and 10 μM together or concentration not stated)” value in series [1] was less than 6%. In series [2], the viability at 1 µM stood at 6% and the viability at 10 µM came to 1.3%. In addition, in series [3], the viability at 1 µM amounted to 90.2% and the viability at 10 µM was 0.091%.

With `O=CC12c3ccccc3C(c3ccccc31)c1ccccc12` [Compound 20f], in series [1] (10 μM), the “MUTU-1 Cell Viability % 10 μM” value is given as 5.4%. The viability at 1 µM turned out to be 97.9% in series [2] and 72.9% in series [3]. Besides, the results for the viability at 10 µM in series [2] and in series [3] were less than 5% and 81.7%, respectively.

`OCC12c3ccccc3C(c3ccccc31)c1ccccc12` [Compound 20g]: the “cell viability in MUTU-I cell line (1 and 10 μM together or concentration not stated)” value in series [1] was “inactive”. In addition, in series [2], the viability at 1 µM came out at 101% and the viability at 10 µM stood at 103%. In series [3], the viability at 1 µM was found to be 97% and the viability at 10 µM came out at 68.7%.

Consider `O=C1NC(=O)C2C3c4ccccc4C(c4ccccc43)C12` (stereo not drawn) [Compound 21b], for which the melting point is 299 to 300 °C. Moreover, in series [2], the viability at 1 µM worked out at 104% and the viability at 10 µM worked out at 92.8%. For the same molecule, in series [3], the viability at 1 µM came to 82% and the viability at 10 µM was found to be 74.5%.

`O=C1C2C3c4ccccc4C(c4ccccc43)C2C(=O)N1c1ccccc1` (stereo not drawn) [Compound 21c] returned a melting point of 227 to 229 °C. Further, in series [2], the viability at 1 µM amounted to 93% and the viability at 10 µM came to 91.2%. In addition, in series [3], the viability at 1 µM was found to be 85.7% and the viability at 10 µM was found to be 71.3%.

Take `O=C1NC(=O)C2C1C1c3ccccc3C2(O)c2ccccc21` (stereo not drawn) [Compound 21k, 9-Hydroxy-9,10-dihydro-9,10-[3,4]epipyrroloanthracene-12,14-dione]: the melting point was 253 to 255 °C. In series [2], the viability at 1 µM is 104% and the viability at 10 µM stood at 100%. In addition, in series [3], the viability at 1 µM was 65.9% and the viability at 10 µM came out at 80.9%.

On to `N#C/C=C/C12c3ccccc3C(c3ccccc31)C1C(=O)OC(=O)C12` (stereo not drawn) [Compound 23a, (E)-3-(12,14-Dioxo-9,10-[3,4]furanoanthracen-9(10H)-yl)acrylonitrile], for which the melting point fell in the range of 215 to 219 °C. For the same molecule, in series [2], the viability at 1 µM stood at 82.7% and the viability at 10 µM stood at 82.6%. For the same molecule, in series [3], the viability at 1 µM is 89% and the viability at 10 µM came to 75.8%.

Consider `N#C/C=C/C12c3ccccc3C(c3ccccc31)C1C(=O)N(c3ccccc3)C(=O)C12` (stereo not drawn) [Compound 23c, (E)-3-(12,14-Dioxo-13-phenyl-9,10-[3,4]epipyrroloanthracen-9(10H)-yl)acrylonitrile], for which the melting point was 274 to 281 °C. Besides, in series [2], the viability at 1 µM turned out to be 90.7% and the viability at 10 µM came to 74.1%. For the same molecule, in series [3], the viability at 1 µM was found to be 94.4% and the viability at 10 µM was determined as 89.1%.

Molecule `N#CC(C#N)=CC12c3ccccc3C(c3ccccc31)C1C(=O)OC(=O)C12` (stereo not drawn) [Compound 23d, 2-((12,14-Dioxo-9,10-[3,4]furanoanthracen-9(10H)-yl)methylene)malononitrile] gave a melting point of 196 to 198 °C. Further, in series [2], the viability at 1 µM is 99.8% and the viability at 10 µM was 82.7%. Moreover, in series [3], the viability at 1 µM turned out to be 103% and the viability at 10 µM worked out at 95.7%.

`N#CC(C#N)=CC12c3ccccc3C(c3ccccc31)C1C(=O)NC(=O)C12` (stereo not drawn) [Compound 23e, 2-((12,14-Dioxo-9,10-[3,4]epipyrroloanthracen-9(10H)-yl)methylene)malononitrile] yielded a melting point of 281 to 284 °C. Besides, in series [2], the viability at 1 µM stood at 82.9% and the viability at 10 µM came to 83.6%. In series [3], the viability at 1 µM was found to be 85.7% and the viability at 10 µM was 98.7%.

As for `N#CC(C#N)=CC12c3ccccc3C(c3ccccc31)C1C(=O)N(c3ccccc3)C(=O)C12` (stereo not drawn) [Compound 23f, 2-((12,14-Dioxo-13-phenyl-9,10-[3,4]epipyrroloanthracen-9(10H)-yl)methylene)malononitrile], the melting point was 255 to 258 °C. Moreover, in series [2], the viability at 1 µM was determined as 78.9% and the viability at 10 µM came out at 71.8%. Moreover, in series [3], the viability at 1 µM came out at 82% and the viability at 10 µM came out at 81.6%.

`N/N=C/C12c3ccccc3C(c3ccccc31)C1C(=O)NC(=O)C12` (stereo not drawn) [Compound 23g, (E)-9-(Hydrazonomethyl)-9,10-dihydro-9,10-[3,4]epipyrroloanthracene-12,14-dione]: the melting point was in the range of 245 to 247 °C. Further, in series [2], the viability at 1 µM was 95.2% and the viability at 10 µM is 101%. Also, in series [3], the viability at 1 µM is 78.1% and the viability at 10 µM worked out at 55%.

`O=C1NC(=O)C2C1C1c3ccccc3C2(/C=N/O)c2ccccc21` (stereo not drawn) [Compound 23j, (E)-12,14-Dioxo-9,10-[3,4]epipyrroloanthracene-9(10H)-carbaldehyde oxime]: the melting point lay in the range of 272 to 273 °C. For the same molecule, in series [2], the viability at 1 µM stood at 92.8% and the viability at 10 µM was 87.6%. Also, in series [3], the viability at 1 µM came to 69.1% and the viability at 10 µM worked out at 63.9%.

In turn, `O=C1C2C3c4ccccc4C(/C=N/O)(c4ccccc43)C2C(=O)N1c1ccccc1` (stereo not drawn) [Compound 23k, (E)-12,14-Dioxo-13-phenyl-9,10-[3,4]epipyrroloanthracene-9(10H)-carbaldehyde oxime] had a melting point of 238 to 242 °C. Moreover, in series [2], the viability at 1 µM came out at 96.9% and the viability at 10 µM is 83.9%. Besides, in series [3], the viability at 1 µM was 81.7% and the viability at 10 µM worked out at 74.1%.
